Test results reported in patent publication US20110117164A1, “Use of Additive Sites to Control Nitric Oxide Release from Nitric Oxide Donors Contained within Polymers” (priority 2004, published 2011).

Experiments:
adult sheep = experiment: Coated VECTRA vascular access grafts implanted as arteriovenous grafts in sheep, 21 days; type: in vivo
From the text: Synthetic vascular access grafts (VECTRA™), a proprietary blend of segmented polyetherurethane and siloxane (20 cm in length and 5 mm in diameter), were coated with compound 2d dispersed within a PVC/DOS matrix with appropriate additives. A sheep model was used for in vivo testing. Arteriovenous grafts connecting the common carotid artery to the ipsilateral external jugular vein were surgically implanted in subcutaneous tunnel in adult sheep. Over a 3-week period, duplex ultrasound and clinical examination were performed to assess graft patency. Grafts were removed at 21 days and underwent gross and histological evaluation. […] In addition, histological studies, using appropriate stains to highlight different regions, confirm the thrombus adherent at the luminal surface and red blood cell infiltration into upper layers of the control grafts (FIG. 11A).

[1] = NO release from polymer films/coatings containing NO donor in PBS buffer at 37° C. by chemiluminescence; type: physicochemical
Method: Thermal stability of diazeniumdiolates. […] Kinetics. […] Use in Hydrophobic Systems.
In the absence of the KTpClPB, NO release decreases dramatically after approximately 1 hour. […] The decrease in NO release observed is believed to result from an increase in the pH within the organic polymer film, which decreases the decomposition rate of lipophilic diazeniumdiolates. As water diffuses into the film initiating NO release, secondary amine sites result. The secondary amine sites have a higher pKa than water and therefore deprotonate water to form hydroxide ions. The basic microdomain environment that results within the polymer, in turn, slows further decomposition of the remaining diazeniumdiolates that would generate NO. This retardation may occur as a result of the organic ammonium hydroxide microphases within the polymer, which in turn serves to stabilize the remaining diazeniumdiolates.
FT-IR were collected on Perken Elmer Spectrum VX. […] Elemental analyses were performed. Reagents. […] NO was purchased from Matheson Gases. […] General NO Addition Procedure. […] The products were finally collected and dried under vacuum. Molar Extinction Coefficients. […] The maximum wavelength and absorbance were collected. […] Kinetics Studies. […] The NO released was measured using chemiluminescence. […] Preparation of Polymer Films Containing Diazeniumdiolates. […] The membranes were covered and allowed to cure overnight. […] Polymerization to Form Boc-protected Diamine Copolymer.
General Procedure for Deprotection to Form Diamine Copolymer (c). 35 mg of the copolymer (b) was dissolved in 2 mL of dichloromethane and then 200 μL of TFA (trifluoroacetic acid) was added dropwise. The solution was stirred at room temperature for about 3 hours. The reaction mixture was diluted with 20 mL of dichloromethane, and the organic phase was then washed with sodium bicarbonate, water, and brine, and was dried with sodium sulfate. The solvent was evaporated and the resulting copolymer was dried under vacuum overnight. ^1H-NMR was performed to confirm the structure and actual composition of the copolymer. General Procedure for NO Loading to Form Polymer-Based NO Donor (d). 20 mg of the deprotected copolymer (c) was dissolved in 3 mL of dry THF and placed in a high pressure reactor with a stirring bar, and flushed with argon for about 10 minutes. 100% excess of sodium methoxide (with respect to free amine sites) was added and the reactor was closed. The reactor was purged with argon again for several times (e.g. ten times) over a 1 hour period and was charged with NO at 80 psi. The reaction mixture was stirred for 72 hours at room temperature. After the reaction was complete, the copolymer was precipitated with dry hexane under argon. The remaining solvent was removed using a vacuum, and the diazeniumdiolated copolymers (d) were examined by UV-Vis spectrum as well as NOA. This resulting copolymer was stored in sealed vials charged with argon in a freezer. Preparation of Polymer Films Containing Polymer-Based No Donor. Polymer membranes containing the polymer-based NO donor was prepared by dissolving 60.8 mg poly(vinyl chloride) (PVC), 30.4 mg dioctyl sebacate (DOS), and 9.1 mg poly(lactide-co-glycolide) (50:50) (PLGA 50:50) in 1.5 mL of freshly distilled tetrahydrofuran. […] A trilayer film configuration is employed to fabricate films. […] Four hours later the polymer cocktail was cast on top of the PVC layer. After another 4 hours, the PVC solution was cast again as a finish layer. The membrane was covered and allowed to cure overnight. Polymer films containing no additives were prepared in a similar manner. […] NO Release Measurements by Chemiluminescence. All NO measurements were performed using a Sievers Nitric Oxide Analyzer (NOA), model 280. The instrument was calibrated before each experiment using an internal two-point calibration (zero gas and 45 PPM). The flow rate was set to 200 mL/min with a cell pressure of 5.4 torr and an oxygen pressure of 6.0 psig. […]

With `CCCCNCCCCCCN(CCCC)/[N+]([O-])=N/O` [Compound 2d, (Z)-1-{N-Butyl-N-[6-(N-butylammoniohexyl)amino]}-diazen-1-ium-1,2-diolate] the “t1/2 ("apparent" t1/2 and t1/2)” value (buffer, pH 7.4) was 4.95 ± 0.567 min, the k (first order decomposition, PBS buffer, pH 7.4, 37° C., n > 3) was 0.0025 ± 0.0002 s⁻¹ and the graft patency (adult sheep; duplex ultrasound and clinical examination, n=2) was “patent at 21 days”. For the same compound, the “mean luminal thrombus-free surface area” value (adult sheep; grafts coated with donor in PVC/DOS matrix, removed at 21 days, n=2) was 95%, the “histological evaluation of grafts” value (adult sheep; grafts removed at 21 days) was “minimal thrombus formation and red blood cell infiltration” and the “gross evaluation of thrombus formation on grafts” value (adult sheep; grafts removed at 21 days, vs control grafts) was “greatly reduced degree of thrombus formation”. For the same compound, the “effect of doubling the NO donor amount” value ([1]; 4 wt. % vs 8 wt. % in 1:2 PVC/DOS film with KTpClPB) was “nearly doubles the surface flux and the NO release”, the “effect of plasticizer on NO release” value ([1]; PVC/NPOE matrix compared with PVC/DOS matrix, with KTpClPB) was “higher initial NO release” and the “effect of increasing polymer to plasticizer ratio on NO release” value ([1]; PVC:DOS increased from 1:2 to 2:1, films with KTpClPB) was “the NO release rate decreases and the release is prolonged”. The “period of steady NO release” value ([1]; SR tubes coated with plasticized SR, 4.2 wt. % donor, 8.1 wt. % KTpClPB, PBS buffer at 37° C.) was 40 h, the “total estimated NO released from the surface of the tube” value ([1]; SR tubes coated with plasticized SR, 4.2 wt. % donor, 8.1 wt. % KTpClPB, after 40 h in PBS buffer at 37° C.) was 15% and the “time after which NO release decreases dramatically” value ([1]; plasticized PVC film, absence of KTpClPB) was “approximately 1 hour”. The “effect of adding KTpClPB on NO release” value ([1]; plasticized PVC films, 1:1 mol ratio KTpClPB:donor, PBS pH 7.4, 37° C.) was “increases, prolongs, and helps to control the release of NO” and the “total NO release profile from film without additive” value ([1]; ~5 wt. % in PVC film plasticized with DOS (1:2), PBS buffer, 37° C., no KTpClPB) was “never achieving theoretical total NO release”.
